Results from patent EP1604643A1, “Cosmetic use of derivatives of 3-Phenylpropionic acid” (Cognis France, S.A.S., priority 2004, dated 2005).
Like-named read-outs stand apart in the source and are kept apart here.

Tests used:
Human fibroblasts = test: Cytophotoprotection of human fibroblasts against UVA radiation (cell proteins, MDA released); assay type: cell-based; conditions: for activity at 0.01 % strength / activity at 0.03 % strength: Homo sapiens, Fibroblast, light or radiation study, % against control, UVA 20 J/cm2; for activity at 0.01 % strength: dose 0.01 % w/v; for activity at 0.03 % strength: dose 0.03 % w/v
Description: The cytoprotection against UVA irradiation has been evaluated by a test on human fibroblasts because UVA radiation penetrates through the epidermis until the dermis where it induces oxidative stress, mainly by activation of photosensitising biological components, which catalyse the formation of ROS like anion superoxide, hydrogen peroxide and singlet oxygen, and lipoperoxydation of the cell membrane. These oxidative stress effects are evaluated in vitro due to measuring of the level of released malondialdehyde (MDA) (Morlière P., Moisan A., Santus R., Huppe G., Mazière J.C., Dubertret L. UV-A induced lipid peroxydation in cultured human fibroblasts. Biochim. Biophys. Acta (1991) Vol 1084, pp 261-269). The lipoperoxides formed after UVA irradiation undergo a decay into malondialdehyde which can form cross-links between many biological molecules like proteins with inhibition of enzymes and nucleic bases with risk of mutagenesis.
Human fibroblasts were inoculated with growth medium (DMEM+FCS) and incubated 3 days at 37°C, with 5% CO2. The growth medium was then exchanged by a medium containing the ingredient to be tested and was incubated 2 days at 37°C under an atmosphrere with 5 % of carbon dioxide. After the exchange of the medium bya balanced salt solution, the cell culture was irradiated with UVA radiation (20J/cm^2). Cell proteins were measured, and MDA released in the supernatant was determined spectrophotometrically.

[1] = Anti-inflammatory activity on human leucocytes cultured in vitro (Zymosan-induced respiratory burst, luminol luminescence); assay type: cell-based; conditions: human, leukocytes, % against control, average of 2-3 assays, each carried out 3 times, read-out: Cell number
Description: (§1) Human leukocytes (Polymorphonuclear neutrophilic granulocytes) were incubated with dihydrosinapinic acid during 1 day at 37°C under an atmosphere with 5 % carbon dioxide. The respiratory burst was induced by addition of a yeast extract ("Zymosan"). After incubation for 0.5 hours at 37 °C under an atmosphere with 5 % carbon dioxide the cell number was measured using an automatic cell counter and the rate of released reactive oxygen species was recorded by a luminescent reaction with luminol. (Pieper G.M., Gross G.J. EMD 52692 (bimakalim) a new potassium channel opener, attenuates luminol-enhanced chemiluminescence and superoxide anion radical formation by Zymosan-activated polymorphonuclear leukocytes (Immunopharmacology (1992) vol 23, pp 191-197). Table 3

[2] = system: Human leukocytes (Polymorphonuclear neutrophilic granulocytes); test: as above; assay type: cell-based
Description: as §1

[3] = Anti free radicals: DPPH° (diphenylpicryl-hydrazyl) test; conditions: optical density at 513 nm; average of two assays
Description: (§2) The anti-free radical (anti-FR) activity has been evaluated by chemical tests for the evaluation of the potential to scavenge free radicals R° (DPPH° test) and hydroxyl radicals HO°. Furthermore the anti-FR activity has been evaluated by biochemical tests to address the potential for scavenging of a kind of reactive oxygen species (ROS), so called superoxide anions (02°).
The DPPH° scavenging effect of dihydrosinapinic acid has been measured by recording the optical density at 513 nm (DEBY C. Relation entre les acides gras essentiels et le taux des antioxydants tissulaires chez la souris. SOCIETE BELGE DE BIOLOGIE, séance du 19 décembre 1970, pp: 2675-2680). The IC50 (Inhibitory Concentration 50 %: dose for which 50 % of DPPH° is scavenged, average of two assays) of dihydrosinapinic acid is 0.0006 % (w/v).

[4] = Anti hydroxyl radicals: HO° test with deoxyribose (Fenton's reaction); conditions: no EDTA; optical density at 532 nm; average of 2 assays
Description: as §2
The hydroxyle radical HO* (formed by H2O2 in presence of Fe++) oxidises deoxyribose, then a pink compound is formed by condensation of thiobarbituric acid with the oxidised form of deoxyribose. The level of oxidised deoxyribose is determined by measurement of the optical density at 532 nm.

Lipoxygenase = test: Inhibition test on lipoxygenase (released superoxide anions, luminol luminescent probes); assay type: biochemical; conditions: rate of released superoxide anions; mean of 2 assays
Description: The anti-free radical (anti-FR) activity has been evaluated by chemical tests for the evaluation of the potential to scavenge free radicals R° (DPPH° test) and hydroxyl radicals HO°. Furthermore the anti-FR activity has been evaluated by biochemical tests to address the potential for scavenging of a kind of reactive oxygen species (ROS), so called superoxide anions (02°). […] Lipoxygenase was incubated with a specific substrate (unsaturated fatty acid) and the ingredient to be tested. Then the rate of released superoxide anions was evaluated by Luminol luminescent probes. The IC50 (mean of 2 assays) of dihydrosinapinic acid was 0.0002 % (w/v).

[5] = average of 2 assays, each carried out three times, read-out: Cell proteins
[6] = irradiated control = 100, read-out: MDA released

IC50 (dose for which 50 % of DPPH° is scavenged) [3]: 0.0006 % (w/v)
IC50 (HO° test with deoxyribose) [4]: 0.025 % (w/v)
IC50 (lipoxygenase inhibition) (Lipoxygenase): 0.0002 % (w/v)
SMILES: COc1cc(CCC(=O)O)cc(OC)c1O [Dihydrosinapinic acid, 3-(4-hydroxy-3,5-dimethoxyphenyl) propionic acid]
activity at 0.01 % strength (Human fibroblasts; [5]): 121%
activity at 0.01 % strength (Human fibroblasts; [6]): 47%
activity at 0.03 % strength (Human fibroblasts; [5]): 140%
activity at 0.03 % strength (Human fibroblasts; [6]): 12%
protection of the cells against UVA-induced MDA released (Human fibroblasts; result in words, after incubation of the fibroblasts): strong protection
viability ([1]; dose 0.0001 % w/v): 99%
viability ([1]; dose 0.0003 % w/v): 98%
activity at 0.0001 % strength ([2]; Homo sapiens, Leukocyte, % against control, dose 0.0001 % w/v, Zymosan-activated, read-out: Released ROS): 25%
activity at 0.0003 % strength ([2]; Homo sapiens, Leukocyte, % against control, dose 0.0003 % w/v, Zymosan-activated, read-out: Released ROS): 13%
respiratory burst (release of reactive oxygen species) ([2]; result in words, Zymosan-activated polymorphonuclear neutrophilic granulocytes): inhibited
